Here are results for one substance from US6630310B1, “Assay for binding between carbohydrate and glycolipid” (Biopolymer Engineering Pharmaceutical, Inc., priority 1996, dated 2003).

The test system of data set [1] is receptor for underivatized, aqueous soluble β(1-3)-glucan on human leukocyte membranes. Nature of the data set: Competition of ^3H-PGG-Glucan binding to human leukocyte membranes (oil/sucrose binding assay). On the procedure: Aminated glucan was prepared by reductive amination of curdlan and provided by Dr. Rolph Seljelid (University of Tromsφ, Tromsφ, Norway).
At the end of the incubation, 100 μl aliquots of reaction mixture were layered on top of a double layer density gradient consisting of 100 μl dibutyl phthalate (lower layer) and 100 μl 8% sucrose in PBS (upper layer) in 400 μl centrifuge tubes (Brinkman). The tubes were spun at 15,000×g for 4-5 minutes and the tips containing the membrane pellets were removed, incubated in 300 μl SOLVABLE™ (New England Nuclear, Boston, Mass.) overnight at 50° C. to dissolve the pellet, and then radioactivity determined by liquid scintillation counting. […] Alternatively, membranes were centrifuged directly in their incubation tubes at 15,000×g for 4-5 minutes at 37° C., the pellet washed with HBSS, then pellets solubilized and radioactivity determined by liquid scintillation counting.

Data set [2] deals with NF-IL6. The data set is described as follows: EMSA of NF-IL6 activation in BMC2.3 cells. Particulars: 3 μg/ml, various times at 37° C. (FIG. 5). The format is cell-based, murine. On the procedure: In order to assess the activation of signal transduction as exemplified by the modulation of one or more transcriptional regulatory factors by underivatized, aqueous soluble β(1-3)-glucan, BMC2.3 cells were incubated with 3 μg/ml underivatized, aqueous soluble β(1-3)-glucan for various periods of time at 37° C. Nuclear extracts were prepared and incubated with ^32P-labeled DNA oligonucleotides specific for NF-κB or NF-IL6. The protein-^32P DNA complexes were separated from unbound ^32P DNA by gel electrophoresis (electrophoretic mobility shift assay, EMSA).
BMC2.3 cells in DMEM plus 10% fetal calf serum were incubated with 3 μg/ml underivatized, aqueous soluble β(1-3)-glucan for various lengths of time. Nuclear extracts were prepared by the method of Dignam et al. (Nuc. Acid Res. 11:1475-1489 (1983)). Nuclear extracts were then incubated with ^32P-labeled DNA oligonucleotide for twenty minutes at room temperature. The sequence of the oligonucleotide used as the probe was […] (SEQ ID NO: 1). The reaction mixture was then separated on a 4% polyacrylamide gel and the results recorded autoradiographically.
On the technique in general: In EMSA bound probe runs differently from free probe, usually more slowly.

In data set [3] the test system is NF-IL6. Nature of the data set: EMSA of NF-IL6 activation in human neutrophils. The format is cell-based. Particulars: 3 μg/ml, 60 minutes at 37° C., relative to control or dextran (FIG. 16B). How it is done:
Purified human neutrophils were incubated with or without underivatized, aqueous soluble β(1-3)-glucan (3 μg/ml) or dextran (3 μg/ml) for 60 minutes at 37° C. Nuclear extracts were prepared and protein/DNA complex formation assessed by electrophoretic mobility shift assay (EMSA). As shown in FIGS. 16A and 16B, underivatized, aqueous soluble β(1-3)-glucan increased the binding of nuclear extract proteins to an NF-kB or NF-IL6 specific 32P-labeled oligonucleotide probe relative to extracts from either control or dextran-treated neutrophils.
Human neutrophils (4.5×10^6 cells/ml; 10 ml total) purified as described above were incubated in RPMI+10% FCS (Sigma Chemical Co.) for 30 minutes at 37° C. Underivatized, aqueous soluble β(1-3)-glucan or dextran (both at 3 μg/ml) were then added and incubation continued an additional 60 minutes at 37° C. Nothing was added to control cells. At the end of the incubation, cells were washed in ice cold PBS+20 mM EDTA and nuclear extracts prepared and EMSAs performed as described above.

Data set [4] is described as follows: Competition of ^3H-PGG-Glucan binding to GalCer II. On the procedure:
Lactosyl ceramide or the sample to be measured was suspended in ethanol. Aliquots as specified were added in triplicate to the wells of a 96-well plate and air dried. The following components were premixed, then 100 μL was added to each well: saline (10 μL) or unlabelled, underivatized, aqueous soluble β(1-3)-glucan (10 μL of a 10 mg/ml stock), ^3H-underivatized, aqueous soluble β(1-3) glucan (10 μL of a 10 μg/ml stock), and HBSS (80 μL). Plates were incubated at 37° C. for 1.5 to 2 hours, then supernatants were removed from each well and discarded. Wells were rinsed with HBSS (200 μL) and SOLVABLE™ (100 μL) was added. The plate was incubated at 60° C. for 5 minutes, then supernatants were removed and counted.

Data set [5] can be described thus: Competition of ^3H-PGG-Glucan binding to lactosyl ceramide in 96-well plate assay (FIGS. 14, 15). Also noted: species or system bovine. The settings on record: FIGS. 14 and 15. An excerpt: FIG. 14 is a graph of the comparison of underivatized, aqueous soluble β(1-3)-glucan and single helix competition of ^3H-underivatized, aqueous soluble β(1-3)-glucan binding in three assay formats. Underivatized, aqueous soluble β(1-3)-glucan or single helix glucan was used at designated concentrations to compete for ^3H-underivatized, aqueous soluble β(1-3)-glucan binding to lactosyl ceramide (LacCer) in a 96-well plate (triangles), or to lactosyl ceramide in reconstituted membranes (squares), or to human leukocyte membranes (circles). Open symbols represent underivatized, aqueous soluble β(1-3) glucan, and closed symbols represent single helix. Maximum competition was assigned at the highest concentration of underivatized, aqueous soluble β(1-3)-glucan used as competitor in each type of assay.
FIG. 15 is a graphic illustration of data showing that underivatized, aqueous soluble β(1-3) glucan and high molecular weight underivatized, aqueous soluble β(1-3) glucan (Network) compete more effectively for ^3H-underivatized, aqueous soluble β(1-3)-glucan binding to lactosyl ceramide in a 96-well plate assay than do single helix or laminarin. […]
Lactosyl ceramide or the sample to be measured was suspended in ethanol. […] The plate was incubated at 60° C. for 5 minutes, then supernatants were removed and counted.

For “underivatized, aqueous soluble β(1-3)-glucan [PGG-Glucan]”, the “competition for ^3H-underivatized, aqueous soluble β(1-3)-glucan binding to HLM (in words)” value in data set [1] (FIG. 14) is “competes”. The “% Control Binding” value in data set [1] (addition at 0.1 mg/ml, ^3H-PGG-Glucan binding to human leukocyte membranes) was found to be 22%; in data set [4] (ligand 0.01 mg hexose/mL), 23.6%; in data set [4] (ligand 0.1 mg hexose/mL), 3.0%; in data set [4] (ligand 1.0 mg hexose/mL), 1.4%. Besides, the “NF-IL6 protein-^32P DNA complex formation (EMSA, in words)” value in the data set with NF-IL6 [2] was “time dependent increase in protein-DNA complexes”. Also, the “binding of nuclear extract proteins to NF-IL6 specific 32P-labeled probe (EMSA, in words)” value with NF-IL6 [3] was “increased”. Further, the “competition for ^3H-underivatized, aqueous soluble β(1-3)-glucan binding to LacCer in the 96-well plate assay (in words)” value in data set [5] is given as “competes”.
